Experimental data as given in patent US11820994B2, “Methods of inducing apomictic or sexual reproduction” (priority 2018, dated 2023).

Legend:
[1] = test system: B. stricta (Drummond's rockcress) ovules; assay: Pistil culture factorial experiment with sucrose, glucose, epiBL, DTBA and 5-azaC; assay type: cell-based, Boechera stricta
Description: (§1) To address redox instability, pistils were exposed to the antioxidant DTBA, an antioxidant that protects thiol groups in proteins from oxidization. To address bioenergetic stress, pistils were exposed to sugars. Glucose signaling is one of the most ancient and central signaling pathways in animals and plants and is involved in gene expression, primary and secondary metabolism, and regulation of growth and development (98). In Arabidopsis, rates of glycolysis and mitochondrial bioenergetics are sensed by TOR, which then control root meristem activation (18). If sufficient sugar is supplied, TOR should be activated. Active TOR protects BZR1 and other important BR-regulated enzymes from degradation, and this leads to plant growth (25). Factorial experiments were designed to test the effects of sucrose, glucose, epiBL, DTBA and 5-azaC on apomixis induction. These were designed for each of three sexual species, B. stricta, arabidopsis and cowpea. The experiments were performed and ratios of apomeiosis to meiosis were documented.
Both the carbohydrate variable and the other components variable were highly significant (P<0.001). Additionally, three ovules from the sucrose plus epiBL treatment (epiBL in the pretreatment and in the medium) had formed aposporous embryo sacs (AES). Also, two ovules, one from the sucrose-epiBL-epiBL treatment and one from the glucose-DTBA-DTBA treatment, had formed Antennaria-type diplosporous embryo sacs (FIGS. 48A-48H).
Cytological Analyses. Arabidopsis, Drummond's rockcress and cowpea floral buds were fixed in FAA (v/v: 3.7% formaldehyde, 5% acetic acid, 50% ethanol) for 48 h and cleared in 2:1 benzyl benzoate dibutyl phthalate (BBDP) (80): 1) 70% EtOH, 30 min; 95% EtOH, ≥4 h (2×); 95% EtOH:BBDP (2:1), 2 h; 95% EtOH:BBDP (1:2), 4 h; BBDP, 4 h; BBDP, overnight. Cleared pistils were mounted (up to 16 per slide) and measured from the pedicel base to the top of the stigma. […] DAPI fluorescence was detected with a Zeiss LSM 510 confocal microscope with excitation at 408 nm, dichroic reflector at HFT488 nm and detection at 450-650 nm. […]
Presence of the following ovule characteristics were recorded: MMCs, Antennaria type diplosporous 1-2 nucleate ES, sexual or Taraxacum type diplosporous dyads, sexual tetrads, sexual or Taraxacum type diplosporous 1-2 nucleate ES, AI and AES. Developmental stages for the majority of ovules per pistil were recorded, and pistil lengths for the following stages (125) were recorded: 1-II, ovule meristems protruding from placentae (precedes MMC formation); 2-IV, meiosis; 3-III, vacuole in immature ES beginning to appear; 4-VI, nuclear divisions in endosperm underway. […]

Arabidopsis ovules = assay: Pistil culture experiments with 5-azaC, BR (epiBL), DTBA, H2O2 and sugars, meiosis to apomeiosis; assay type: cell-based, Arabidopsis thaliana
Description: as §1
Two factorial experiments were conducted using immature arabidopsis pistils. In the first experiment, no 5-azaC, 5-azaC in the pretreatment only, or 5-azaC in both the pretreatment and the tissue culture medium were tested.
Cytological Analyses. Arabidopsis, Drummond's rockcress and cowpea floral buds were fixed in FAA (v/v: 3.7% formaldehyde, 5% acetic acid, 50% ethanol) for 48 h and cleared in 2:1 benzyl benzoate dibutyl phthalate (BBDP) (80): 1) 70% EtOH, 30 min; 95% EtOH, ≥4 h (2×); 95% EtOH:BBDP (2:1), 2 h; 95% EtOH:BBDP (1:2), 4 h; BBDP, 4 h; BBDP, overnight. Cleared pistils were mounted (up to 16 per slide) and measured from the pedicel base to the top of the stigma. Ovule development stages were studied using a BX53 microscope equipped with differential interference contrast optics and a MicroFire 599809 camera (Olympus, Center Valley, Pa., USA). For chromosome staining, pistils were soaked in 95% ethanol that contained 0.1 mg L^−1 4′,6-diamidino-2-phenylindole (DAPI). Callose was stained by soaking DAPI stained pistils in aqueous aniline blue (Millipore Sigma, Darmstadt, Germany) (124). DAPI fluorescence was detected with a Zeiss LSM 510 confocal microscope with excitation at 408 nm, dichroic reflector at HFT488 nm and detection at 450-650 nm. Callose was distinguished from DAPI by detection at 550-650 nm.
Presence of the following ovule characteristics were recorded: MMCs, Antennaria type diplosporous 1-2 nucleate ES, sexual or Taraxacum type diplosporous dyads, sexual tetrads, sexual or Taraxacum type diplosporous 1-2 nucleate ES, AI and AES. Developmental stages for the majority of ovules per pistil were recorded, and pistil lengths for the following stages (125) were recorded: 1-II, ovule meristems protruding from placentae (precedes MMC formation); 2-IV, meiosis; 3-III, vacuole in immature ES beginning to appear; 4-VI, nuclear divisions in endosperm underway. To determine average timing of meiosis onset, pistils primarily containing premeiotic (2-III) ovules were located under low light conditions 1 h before the lights came on in the morning. Corresponding sepals were marked with a small point permanent marker. Pistils were then randomly harvested for analysis when the lights came on and 3 h thereafter.
Pistils were aseptically excised, but not disinfested, at the early pre-MMC to MMC stages and incubated in vitro. The basal culture medium for arabidopsis and Drummond's rockcress was MS (126) (Caisson Laboratories, Inc., Smithfield, UT USA) with 20 g L^−1 sucrose or glucose and solidified with 1.45 g L^−1 Phytogel (MilliporeSigma).

[2] = test system: cowpea (Vigna unguiculata) ovules; assay: Pistil culture with epiBL, DTBA, epiBL plus DTBA and 5-azaC; assay type: cell-based; conditions: compound in pretreatment and culture medium; 24 of 34 ovules in total
Description: as §1, with “These were designed for each of three sexual species, B. stricta, arabidopsis and cowpea. The experiments were performed and ratios of apomeiosis to meiosis were documented.” left out
Cytological Analyses. […] Cleared pistils were mounted (up to 16 per slide) and measured from the pedicel base to the top of the stigma. […] DAPI fluorescence was detected with a Zeiss LSM 510 confocal microscope with excitation at 408 nm, dichroic reflector at HFT488 nm and detection at 450-650 nm. […]
Presence of the following ovule characteristics were recorded: MMCs, Antennaria type diplosporous 1-2 nucleate ES, sexual or Taraxacum type diplosporous dyads, sexual tetrads, sexual or Taraxacum type diplosporous 1-2 nucleate ES, AI and AES. […]

Arabidopsis embryo sacs = assay: Induction of parthenogenesis and autonomous endosperm formation in pistils; assay type: cell-based; conditions: 0.1 μM DTBA on 2% glucose medium for 7 d
Procedure: Scale bars: 50 μm (FIG. 51A), 20 μm (FIGS. 51B-51E).
FIG. 52 Parthenogenesis in putatively diploid Arabidopsis embryo sacs induced by treatment of pistils in emasculated flowers with 2 μM BR or 50 mM glucose. To prevent fertilization, stigmas of pistils were clipped while anthers were immature. These pistils were also treated premeiotically with BR and glucose.
Functional apomixis requires not only apomeiosis but also parthenogenesis and, in plants, endosperm formation.

[3] = test system: B. cf. gunnisoniana ovules
Description: (§2) Ovules were scored based on germline development. The following conditions were quantified: i) pre-meiotic megaspore mother cell (MMC), ii) meiotic or diplosporous dyad, iii) sexual tetrad of megaspores, iv) enlarged functional megaspore (FM) with three degenerating megaspores (sexually derived), v) early-stage 1 or 2-nucleate embryo sac with three degenerating megaspore remnants visible, vi) enlarged functional megaspore (FM) with only one degenerating megaspore (derived by Taraxacum-type diplospory), vii) early-stage 1 or 2-nucleate embryo sac with only one degenerating megaspore remnant (derived by Taraxacum-type diplospory), viii) early-stage 1 or 2-nucleate embryo sac with no degenerating megaspores present (derived by Antennaria-type diplospory), ix) presence of one or more enlarged non-vacuolate nucellar cells (aposporous initial, AI) that equal or surpass the size of the meiocyte (meiotically active MMC, dyad or early-stage tetrad), x) enlarged nucellar cell with one or more distinct vacuoles and 1-2 nuclei (early-stage aposporous embryo sac, AES). Because of increased uncertainties, the origins of embryo sacs (sexual, diplosporous or aposporous) were not reported beyond the 2-nucleate stage. Pistil length and the developmental stage of the majority of scorable ovules in the pistil were recorded for each pistil.
(§3) To study the effects of short-term drought on converting apomictic development to sexual development, pistils of apomictic B. retrofracta×stricta, B. cf. gunnisoniana and B. lignifera were excised and cultured at pre-apomeiotic stages of ovule development.
(§4) TARGET OF RAPAMYCIN (TOR) is a major regulator of cell energetics that is highly-conserved among eukaryotes. This serine/threonine protein kinase activates or inactivates enzymes by its serine-threonine phosphorylation function(18). As a regulator of bioenergetics, TOR is inactivated by ROS, and its inactivation suppresses growth.

B. lignifera ovules = conditions: 50 and/or 100 mmol L−1 H2O2, 5 min pretreatment of pistils
Description: as §2, §3, §4

[4] = test system: B. retrofracta×stricta ovules; conditions: 50 and/or 100 mmol L−1 H2O2, 5 min pretreatment of pistils
Description: as §2, §3, §4

[5] = test system: B. cf. gunnisoniana ovules; assay: Pistil culture with BR biosynthesis inhibitor BRZ, H2O2, or both; assay type: cell-based; conditions: for shift from apomeiosis (dyad formation) to meiosis (tetrad formation) vs controls: BRZ alone (1.0 μmol), H2O2 alone (500 μmol), or combined
Procedure: Pistils were cultured at the 2-IV stage.
Pistils were cultured at the […].
By a mechanism not yet elucidated (25), TOR stimulates the production of brassinosteroids (BR), which are plant steroids that regulate growth, including many growth and development functions of ovules (25). By dephosphorylation, BR activates BRASSINAZOLE-RESISTANT 1 (BZR1), which is a major BR-regulated transcription factor that targets ca. 2000 genes. Thus, to determine if BR functions downstream of TOR in the apomeiosis meiosis switch, we treated sets of B. cf. gunnisoniana pistils with the BR biosynthesis inhibitor brassinozole (BRZ). Pistils were collected during the 2-III and 2-IV stages.
To determine if apomixis to sex switching by H2O2 involves pathways independent of BR, we compared three treatments to controls, BRZ alone (1.0 μmol), H2O2 alone (500 μmol), and BRZ and H2O2 combined (FIG. 37).

[6] = test system: apomictic Boechera pistils; conditions: H2O2 applications shortly before apomeiosis; cited from earlier work
[7] = test system: B. cf. gunnisoniana ovules; conditions: pre-MMC staged pistils demethylated with 5-azaC; cited from earlier work
[8] = test system: B. cf. gunnisoniana ovules; assay: 5-azaC pre-culture soak and pistil culture, Taraxacum-type to Antennaria-type diplospory; assay type: cell-based; conditions: 500 μmol L−1 5-azaC (highest concentration)
Procedure: FIG. 38 Frequencies of triploid B. cf. gunnisoniana ovules that were initiating Taraxacum-type diplospory, Polygonum-type sexual development, Antennaria-type diplospory, or Hieracium-type apospory at the end of pistil culture treatment as affected by a 5 min pre-culture soak in solutions containing 5-azacytidine (5-azaC). Pistils were initiated in culture at the 1-I stage. Numbers of ovules per level of 5-azaC averaged 487 and ranged from 288-590.
FIGS. 39A-39C Ovules from pistils of B. gunnisoniana treated at the pre-MMC stage with 5-azaC as a pretreatment solution and then cultured on 5-azaC-containing tissue culture media for 48 h. (FIGS. 39A, 39B) Antennaria-type (A-type) MMC vacuolation. (FIG. 39C) 2-nucleate A-type embryo sac arising directly from an MMC. scale bar: 20 μm.
Thus, if methylation in sexual plants can be prevented, or if DNA can be demethylated, the apomictic pathway might surface as the default pathway. 5-azaC, an inhibitor of DNA-cytosine methyltransferases, produces upon DNA replication hypomethylated DNA. It is a chemical analogue of cytosine that is incorporated into DNA by competition with cytosine during DNA synthesis. In 5-azaC, the carbon-5 of the cytosine ring, which is essential to DNA methyltransferase function, is replaced by nitrogen, and this causes failure of methylation at each 5-azaC site(99). […]

[9] = early MMC staged pistils soaked in DTBA 60 min, cultured on DTBA medium 4 d
[10] = 7 min pretreatment in dilute H2O2

For `Cl.N[C@H](CS)CCS` [DTBA, (S)-2-aminobutane-1,4-dithiol hydrochloride], the “number of ovules that formed Antennaria-type diplosporous embryo sacs” value ([1]; glucose-DTBA-DTBA treatment) was “one”, the “ovules with 1st division meiotic restitution (Taraxacum-type diplosporous apomeiosis)” value (Arabidopsis ovules; [9]) was 40% and the “ovules with megaspores displaced by one or more AES” value (Arabidopsis ovules; [9]) was 18%. For the same compound, the “number of ovules that initiated Antennaria-type diplospory” value [2] was 8 ovules and the parthenogenetic embryo formation (Arabidopsis embryo sacs) was “Parthenogenetic embryos”.

With `OO` [H2O2, hydrogen peroxide] the “switch from apomeiosis to meiosis” value ([3]; 50 and/or 100 mmol L−1 H2O2, 5 min pretreatment of pistils) was “effectively switched apomeiosis to meiosis”, the “replacement of surviving megaspores of tetrads by aposporous embryo sacs (apospory), ovules” value ([3]; H2O2 treatments) was 30% and the “switch from apomeiosis to meiosis” value (B. lignifera ovules) was “effectively switched apomeiosis to meiosis”. For the same compound, the “switch from apomeiosis to meiosis” value [4] was “effectively switched apomeiosis to meiosis”, the “shift from apomeiosis (dyad formation) to meiosis (tetrad formation) vs controls” value [5] was “highly significant (p<0.001) shift from apomeiosis (dyad formation) to meiosis (tetrad formation)” and the “Taraxacum-type diplosporous ES formation” value (Arabidopsis ovules; [10]) was “absent”. The “ovules with surviving megaspores replaced by AES” value (Arabidopsis ovules; [10]) was 13% and the “shift from apomeiosis to meiosis” value [6] was “high frequency shifts from Taraxacum-type diplosporous apomeiosis to normal meiosis”.

In the case of `Nc1ncn([C@@H]2O[C@H](CO)[C@@H](O)[C@H]2O)c(=O)n1` [5-azaC, 5-azacytidine], the “ovules switched from Taraxacum-type to Antennaria-type diplospory” value [7] is given as 10%, the Antennaria type diplospory (Arabidopsis ovules; 5-azaC soak, then 5-azaC or BR medium (5/5, 5/B)) is given as “occurred in some ovules” and the “ovules with meiosis replaced by Antennaria-type diplosporous embryo sac formation” value (Arabidopsis ovules; first factorial experiment, 5-azaC in pretreatment and tissue culture media) is given as 6%. The “onset of aposporous embryo sac formation” value (Arabidopsis ovules; first factorial experiment, 5-azaC in pretreatment only or pretreatment and medium) was “effectively induced onset of aposporous embryo sac formation from nucellar cells”, the “treated ovules that developed apomeiotically” value (Arabidopsis ovules; pre-MMC pistils soaked in 5-azaC 60 min, cultured on control medium or media with 5-azaC, BR, or 5-azaC plus BR and DTBA) was “Greater than 90%” and the “ovules with Antennaria-type diplospory” value (Arabidopsis ovules; second factorial experiment, 5-azaC as pretreatment and in culture medium) was 26%. The “ovules that initiated apomixis (AES, Taraxacum-type and Antennaria-type diplospory)” value (Arabidopsis ovules; second factorial experiment, 5-azaC-treated) was 90%, the “number of ovules that initiated Antennaria-type diplospory” value [2] was “Nine” and the “ovules with induced Antennaria-type diplospory” value [8] was 10%.

With `OC[C@H]1O[C@@](CO)(O[C@H]2O[C@H](CO)[C@@H](O)[C@H](O)[C@H]2O)[C@@H](O)[C@@H]1O` [sucrose] the “meiosis termination followed by Taraxacum and Hieracium type ES formation” value ([1]; glucose instead of sucrose in medium) was 26 of 164.

For `CC(O)(c1ccccc1)C(Cc1ccc(Cl)cc1)n1cncn1` (stereo not shown) [BRZ, brassinazole], the “shift from apomeiosis (dyad formation) to meiosis (tetrad formation) vs controls” value [5] was “highly significant (p<0.001) shift from apomeiosis (dyad formation) to meiosis (tetrad formation)” and the “shift of reproductive mode by BR synthesis inhibition” value ([5]; pistils cultured at the 2-IV stage) was “significant shift (P<0.05) from apomeiosis to meiosis and from apoptosis to apospory”.
